{"source": "patent US20140221301A1", "about": "“COMBINATION TREATMENT FOR CANCER” (priority 2011, published 2014)", "key": {"[1]": {"tested_on": "primary normal hematopoietic cells (PBSC)", "assay": "Cell viability by Annexin V staining, primary normal hematopoietic cells", "assay_type": "cell-based, human", "conditions": "n=5, 48 hours", "protocol": "(§1) FIG. 2. Tigecycline induces cell death and inhibits clonogenic growth in primary AML cells preferential over normal hematopoietic cells. Mononuclear cells from peripheral blood of leukemia patients (blast count>80%) and normal G-CSF expanded donors was treated with increasing concentrations of tigecycline for 48 hours. Cell viability was measured by Annexin-PI flow cytometry staining. Cell viability is expressed as a mean percentage plus or minus SD (n=3) relative to DMSO-treated cells. Mononuclear cells from primary AML patient samples (A, B) and normal peripheral blood cells (C) were plated in methylcelluose with 5 μM of Tigecycline. (D) Colony forming units were counted at 7 days (AML) and 14 days (Normal) post plating. […]\n(§2) Cell growth and viability was assessed by the MTS assay (Promega, Madison, Wis.) according to the manufacturer's instructions. Apoptosis and cell death was measured by Annexin V-fluroscein isothiocyanate (FITC; Biovision Research Products, Mountain View, Calif.), propidium iodide staining and flow cytometry according to the manufacturer's instructions and as previously described^30.\nGiven the cytotoxicity of tigecycline towards leukemia cell lines, the ability of tigecycline to induce cell death in primary acute myeloid leukemia (AML) patient samples and normal hematopoietic cells was compared and evaluated. […]"}, "TEX cells": {"tested_on": "TEX cells", "assay": "Chemical screen, MTS assay, TEX cells", "assay_type": "cell-based, human", "conditions": "10 μM, 72 hours", "text": "To identify compounds active against leukemia stem cells, a library of drugs (n=312) with well-characterized pharmacokinetics and toxicology and a wide therapeutic window was compiled. This library was then screened to identify agents that reduced the viability of TEX and M9-ENL1 cells. TEX and M9-ENL1 cells were derived from lineage-depleted human cord blood cells (Lin-CB) transduced with TLS-ERG or MLL-ENL oncogenes, respectively, and, as shown previously, display properties of stem cells including hierarchal differentiation and marrow repopulation^14, 15. In this screen, TEX and M9-ENL1 cells were treated with aliquots of the compounds. After incubation, cell growth and viability was measured by the MTS assay. From this screen, tigecycline was identified.\nTEX, and M9-ENL-1 cells were seeded into 96-well polystyrene tissue culture plates (Corning). […] 72 (TEX) and 48 (M9-ENL-1) hours after incubation, cell growth and viability was measured by MTS assay. […]\nas §2, with “described^30. […]” for “described^30.”"}, "[2]": {"tested_on": "primary AML patient samples", "assay": "Cell viability by Annexin V staining, primary AML patient samples", "assay_type": "cell-based, human", "protocol": "as §2"}, "leukemia cell lines": {"tested_on": "leukemia cell lines", "assay": "Cell growth and viability, MTS assay, leukemia cell lines", "assay_type": "cell-based", "conditions": "72 hours, tested leukemia cell lines", "protocol": "FIG. 1. […] (A) TEX and (B) M9-ENL1 cells were plated in 96-well plates and drugs were added to the wells (5 μL per well) for final concentrations of 10 μM (shown) and 1 μM. Cell growth and viability was measured at 48 hours (M9-ENL-1) and 72 hours (TEX) by MTS assay. Cell viability is shown for each compound as a percent of cells treated with DMSO alone. (C) Leukemia, (D) myeloma, and (E) solid tumor cell lines were seeded in 96-well plates and then treated with increasing concentrations of tigecycline. Cell growth and viability was measured at 72 hours by MTS assay. Cell viability is expressed as mean percentage plus or minus SD (n=3) relative to vehicle-treated cells. […] Cell viability was measured at 72 hours by MTS assay. Cell viability is expressed as mean percentage plus or minus SD (n=3) relative to vehicle-treated cells.\nHuman leukemia (OCI-AML2, HL60, U937) cell lines were maintained in RPMI 1640 medium. Myeloma (LP-1, KMS11, 8226, JJN3, OP-M2) cell lines were maintained in Iscove's media. […]\nas §2"}, "[3]": {"tested_on": "primary AML patient samples", "assay": "Methylcellulose colony formation assay, primary AML cells", "assay_type": "cell-based, human", "conditions": "5 μM, primary AML patient samples n=7, 7 days", "protocol": "as §1\nTo assess clonogenic growth, primary AML cells (1.0×10^5/mL) or granulocyte colony-stimulating factor (G-CSF) mobilized PBSCs (1.0×10^5/mL) were plated in duplicate with increasing concentrations of tigecycline in MethoCult GF H4434 medium (StemCell Technologies, Vancouver, BC) containing 1% methycellulose in IMDM, 30% FCS, 1% bovine serum albumin, 3 U/mL of recombinant human erythropoietin, 10^−4 M of 2-mercaptoethanol, 2 mM of L-glutamine, 50 ng/mL of recombinant human stem cell factor, 10 ng/mL of GM-CSF, and 10 ng/mL of rh IL-3). Seven days (AML samples) or 14 days (normal PBCS) after plating, the number of colonies was counted as previously described^31."}}, "data": [{"smiles": "CN(C)c1cc(NC(=O)CNC(C)(C)C)c(O)c2c1C[C@H]1C[C@H]3[C@H](N(C)C)C(O)=C(C(N)=O)C(=O)[C@@]3(O)C(O)=C1C2=O", "note": "[tigecycline]", "values": [{"measurement": "LD50", "setting": "[1]", "result": "> 10", "unit": "µM"}, {"measurement": "cell growth and viability in screen", "setting": "TEX cells", "result": "cell growth inhibitor"}, {"measurement": "relation of induced cytotoxicity to mitochondrial mass", "setting": "[2]; AML samples, 5 μM and 10 μM, 48 hours", "result": "correlates with increasing mitochondrial mass"}, {"measurement": "LD50", "setting": "[2]; more resistant group of patients, n=7, 48 hours", "result": "> 9", "unit": "µM"}, {"measurement": "LD50", "setting": "[2]; sensitive subset of leukemia patients, n=13, 48 hours", "result": 5, "unit": "µM"}, {"measurement": "IC50", "setting": "leukemia cell lines", "result": "5 to 8", "unit": "µM"}, {"measurement": "reduction of clonogenic growth", "setting": "[3]", "result": "93±4", "unit": "%"}]}]}
